# Experimental data: ChEMBL document CHEMBL3885861, “Open TG-GATES”
# “And” between values parts separate entries of the source, which are not always exact repeats. Equal entries are not always repeated.
# Species: Rattus norvegicus
# Test: Open TG-GATES - Regimen: Single
# Type: toxicity, organism-based, Sprague-Dawley
# Design: regimen Single, gender Male, age 6 weeks
# Settings: in vivo, po, 0 mg/kg, route gavage, dose level Control; for APTT / Bas / Eos / Fbg / Hb / Ht / Lym / MCH / MCHC / MCV / Mono / Neu / PT / Plat / RBC / Ret / WBC: tissue Blood; for KIDNEY_L / KIDNEY_R / KIDNEY_TOTAL: tissue Kidney; for LIVER: tissue Liver; for A/G / ALP / ALT / AST / BUN / CRE / Ca / Cl / GLC / IP / K / LDH / Na / PL / RALB / TBIL / TC / TG / TP / gamma-GTP / DBIL: tissue Plasma
smiles,measurement,setting,value
COc1ccc2c(c1)c(CC(=O)O)c(C)n2C(=O)c1ccc(Cl)cc1 [INDOMETHACIN],TERMINAL_BW,3 h,201 g and 226.5 g
same,APTT,3 h,16.8 s and 19.8 s
same,Bas,3 h,0% and 0.2%
same,Eos,3 h,0.6% and 1%
same,Fbg,3 h,201.6 mg/dL and 227.8 mg/dL
same,Hb,3 h,13.6 g/dL and 13.9 g/dL
same,Ht,3 h,40.8% and 38.7%
same,Lym,3 h,80% and 80.4%
same,MCH,3 h,21.9 pg and 22.5 pg
same,MCHC,3 h,33.2% and 35.9%
same,MCV,3 h,66 fL and 62.6 fL
same,Mono,3 h,10.2% and 2.4%
same,Neu,3 h,9.6% and 15%
same,PT,3 h,12.8 s and 11.9 s
same,Plat,3 h,109 x10_4/uL and 118.1 x10_4/uL
same,RBC,3 h,618.8 x10_4/ul
same,Ret,3 h,10.2% and 7.9%
same,WBC,3 h,108.5 x10_2/uL and 100.3 x10_2/uL
same,KIDNEY_L,3 h,0.9 g and 1 g
same,KIDNEY_R,3 h,0.9 g and 1 g
same,KIDNEY_TOTAL,3 h,1.8 g and 2 g
same,LIVER,3 h,9.4 g and 10 g
same,A/G,3 h,1.6 and 1.8
same,ALP,3 h,1191.4 IU/L and 1059 IU/L
same,ALT,3 h,39 IU/L and 32.2 IU/L
same,AST,3 h,69.6 IU/L and 71.8 IU/L
same,BUN,3 h,12.2 mg/dL and 11.8 mg/dL
same,CRE,3 h,0.5 mg/dL and 0.4 mg/dL
same,Ca,3 h,10.6 mg/dL and 10.7 mg/dL
same,Cl,3 h,105.6 meq/L and 103 meq/L
same,GLC,3 h,194.4 mg/dL and 209.4 mg/dL
same,IP,3 h,10 mg/dL and 9.2 mg/dL
same,K,3 h,5.1 meq/L and 4.1 meq/L
same,LDH,3 h,104.8 IU/L and 217.4 IU/L
same,Na,3 h,137.8 meq/L and 141 meq/L
same,PL,3 h,129.4 mg/dL and 135 mg/dL
same,RALB,3 h,3.8 g/dL and 3.4 g/dL
same,TBIL,3 h,0.3 mg/dL and 0.1 mg/dL
same,TC,3 h,74.8 mg/dL and 73.8 mg/dL
same,TG,3 h,56.2 mg/dL and 67.4 mg/dL
same,TP,3 h,6.1 g/dL and 5.4 g/dL
same,gamma-GTP,3 h,1.2 IU/L
same,TERMINAL_BW,6 h,197.2 g and 224 g
same,APTT,6 h,17.5 s and 19.1 s
same,Bas,6 h,0%
same,Eos,6 h,0.8%
same,Fbg,6 h,209.2 mg/dL and 225.2 mg/dL
same,Hb,6 h,13.6 g/dL and 13.8 g/dL
same,Ht,6 h,41% and 38.1%
same,Lym,6 h,78.2% and 80%
same,MCH,6 h,21.9 pg and 22.3 pg
same,MCHC,6 h,33.1% and 36.4%
same,MCV,6 h,66.2 fL and 61.3 fL
same,Mono,6 h,6.8% and 2.8%
same,Neu,6 h,14.2% and 15%
same,PT,6 h,12.7 s and 12.2 s
same,Plat,6 h,104.7 x10_4/uL and 120.1 x10_4/uL
same,RBC,6 h,619.4 x10_4/ul and 621.8 x10_4/ul
same,Ret,6 h,9.3% and 7.9%
same,WBC,6 h,111.4 x10_2/uL and 85.5 x10_2/uL
same,KIDNEY_L,6 h,0.9 g
same,KIDNEY_R,6 h,0.9 g
same,KIDNEY_TOTAL,6 h,1.8 g and 1.9 g
same,LIVER,6 h,8.4 g and 9.5 g
same,A/G,6 h,1.7 and 1.6
same,ALP,6 h,1101.4 IU/L and 861.4 IU/L
same,ALT,6 h,34.2 IU/L and 31.6 IU/L
same,AST,6 h,68.4 IU/L and 67.8 IU/L
same,BUN,6 h,11.6 mg/dL and 9.6 mg/dL
same,CRE,6 h,0.5 mg/dL and 0.4 mg/dL
same,Ca,6 h,10.1 mg/dL and 10.8 mg/dL
same,Cl,6 h,106 meq/L and 102.8 meq/L
same,DBIL,6 h,0.032 mg/dL and 0.078 mg/dL
same,GLC,6 h,193.2 mg/dL and 193.8 mg/dL
same,IP,6 h,9.8 mg/dL and 9.4 mg/dL
same,K,6 h,4.8 meq/L and 4.1 meq/L
same,LDH,6 h,77.2 IU/L and 197.4 IU/L
same,Na,6 h,137.2 meq/L and 140.6 meq/L
same,PL,6 h,119.2 mg/dL and 136.4 mg/dL
same,RALB,6 h,3.8 g/dL and 3.4 g/dL
same,TBIL,6 h,0.3 mg/dL and 0.1 mg/dL
same,TC,6 h,69.2 mg/dL and 73.4 mg/dL
same,TG,6 h,39 mg/dL and 70.6 mg/dL
same,TP,6 h,6 g/dL and 5.5 g/dL
same,gamma-GTP,6 h,1.8 IU/L and 1 IU/L
same,TERMINAL_BW,9 h,196.5 g and 222.5 g
same,APTT,9 h,16.7 s and 17.7 s
same,Bas,9 h,0%
same,Eos,9 h,0.4% and 1%
same,Fbg,9 h,211.2 mg/dL and 229.6 mg/dL
same,Hb,9 h,13.2 g/dL and 13.5 g/dL
same,Ht,9 h,40% and 36.8%
same,Lym,9 h,82.8% and 78.6%
same,MCH,9 h,21.7 pg and 22.4 pg
same,MCHC,9 h,33.1% and 36.7%
same,MCV,9 h,65.6 fL and 61.1 fL
same,Mono,9 h,6.4% and 2.8%
same,Neu,9 h,10.2% and 16.6%
same,PT,9 h,12.5 s
same,Plat,9 h,100.8 x10_4/uL and 126.3 x10_4/uL
same,RBC,9 h,610 x10_4/ul and 603.4 x10_4/ul
same,Ret,9 h,10.2% and 8.2%
same,WBC,9 h,121.1 x10_2/uL and 84 x10_2/uL
same,KIDNEY_L,9 h,0.9 g and 1 g
same,KIDNEY_R,9 h,0.9 g and 1 g
same,KIDNEY_TOTAL,9 h,1.9 g
same,LIVER,9 h,8.1 g and 8.7 g
same,A/G,9 h,2.5 and 1.7
same,ALP,9 h,901.4 IU/L and 851.8 IU/L
same,ALT,9 h,33.8 IU/L and 28.6 IU/L
same,AST,9 h,68.8 IU/L and 64.8 IU/L
same,BUN,9 h,12.4 mg/dL and 9.6 mg/dL
same,CRE,9 h,0.5 mg/dL and 0.4 mg/dL
same,Ca,9 h,10.2 mg/dL and 10.5 mg/dL
same,Cl,9 h,107 meq/L and 104.2 meq/L
same,DBIL,9 h,0.042 mg/dL and 0.072 mg/dL
same,GLC,9 h,191 mg/dL and 209 mg/dL
same,IP,9 h,10.3 mg/dL
same,K,9 h,5.1 meq/L and 3.8 meq/L
same,LDH,9 h,98.8 IU/L and 189 IU/L
same,Na,9 h,138 meq/L and 142.4 meq/L
same,PL,9 h,137.6 mg/dL and 129.2 mg/dL
same,RALB,9 h,3.9 g/dL and 3.5 g/dL
same,TC,9 h,81 mg/dL and 72.4 mg/dL
same,TG,9 h,43.4 mg/dL and 45.8 mg/dL
same,TP,9 h,5.4 g/dL and 5.6 g/dL
same,gamma-GTP,9 h,2 IU/L and 1 IU/L
same,TERMINAL_BW,24 h,215.4 g and 240.9 g
same,APTT,24 h,16.7 s and 18.2 s
same,Bas,24 h,0% and 0.8%
same,Eos,24 h,1% and 0.6%
same,Fbg,24 h,218.4 mg/dL and 222.8 mg/dL
same,Hb,24 h,13.5 g/dL and 13.2 g/dL
same,Ht,24 h,41.1% and 38.2%
same,Lym,24 h,79% and 79.8%
same,MCH,24 h,21.6 pg and 21.5 pg
same,MCHC,24 h,33% and 34.4%
same,MCV,24 h,65.5 fL and 62.4 fL
same,Mono,24 h,10.4% and 2.6%
same,Neu,24 h,9.4% and 15.6%
same,PT,24 h,12.1 s and 11.5 s
same,Plat,24 h,95.4 x10_4/uL and 128.4 x10_4/uL
same,RBC,24 h,627.4 x10_4/ul and 612.4 x10_4/ul
same,Ret,24 h,9.1% and 6.5%
same,WBC,24 h,106.5 x10_2/uL and 112.4 x10_2/uL
same,KIDNEY_L,24 h,1 g
same,KIDNEY_R,24 h,1 g
same,KIDNEY_TOTAL,24 h,2 g
